Key:
[1] = human steady-state total drug exposure, GDC-9545 versus fulvestrant; type: in vivo; conditions: GDC-9545 30 mg QD versus fulvestrant 500 mg IM monthly
Description: (§1) Furthermore, the lower plasma protein binding of GDC-9545 provides higher free concentration of GDC-9545 than fulvestrant.

ESR1-mutant = assay: in vitro cell and biochemical assays, ESR1-mutant context
Description: as §1

wild-type ER = biological target: T1, wild-type ER (Homo sapiens, UniProt P03372); assay: in vitro cell and biochemical assays, wild-type context
T1 sequence (P03372 1-595): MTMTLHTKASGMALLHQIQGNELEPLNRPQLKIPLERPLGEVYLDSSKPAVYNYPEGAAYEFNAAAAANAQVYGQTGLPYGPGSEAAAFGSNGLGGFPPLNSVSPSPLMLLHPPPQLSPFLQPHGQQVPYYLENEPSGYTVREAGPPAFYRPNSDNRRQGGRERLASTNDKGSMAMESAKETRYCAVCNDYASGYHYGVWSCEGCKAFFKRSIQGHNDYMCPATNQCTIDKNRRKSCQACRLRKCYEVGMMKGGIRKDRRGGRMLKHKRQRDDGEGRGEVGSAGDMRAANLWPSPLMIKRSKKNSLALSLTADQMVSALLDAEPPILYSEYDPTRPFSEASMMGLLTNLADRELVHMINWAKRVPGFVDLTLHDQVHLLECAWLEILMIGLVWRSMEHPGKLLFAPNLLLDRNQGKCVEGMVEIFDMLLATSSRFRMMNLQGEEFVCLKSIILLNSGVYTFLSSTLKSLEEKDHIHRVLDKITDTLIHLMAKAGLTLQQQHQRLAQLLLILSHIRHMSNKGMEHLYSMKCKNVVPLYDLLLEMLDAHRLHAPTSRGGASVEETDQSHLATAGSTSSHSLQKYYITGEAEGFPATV
Description: as §1

[2] = plasma protein binding and free concentration, GDC-9545 versus fulvestrant; type: in vitro ADME
Description: as §1

CDK4 = CDK4 (Homo sapiens, UniProt P11802); conditions: cited from earlier work
[3] = test system: endocrine-resistant tumors; conditions: cited from earlier work
xenograft models = assay: xenograft models, efficacy; type: in vivo; conditions: fulvestrant dosed according to a clinically relevant dosing scheme
Description: as §1

[4] = test system: ER+ metastatic breast cancer; conditions: frontline patients, NCT01602380; cited from earlier work

CDK4, sequence (P11802 whole entry): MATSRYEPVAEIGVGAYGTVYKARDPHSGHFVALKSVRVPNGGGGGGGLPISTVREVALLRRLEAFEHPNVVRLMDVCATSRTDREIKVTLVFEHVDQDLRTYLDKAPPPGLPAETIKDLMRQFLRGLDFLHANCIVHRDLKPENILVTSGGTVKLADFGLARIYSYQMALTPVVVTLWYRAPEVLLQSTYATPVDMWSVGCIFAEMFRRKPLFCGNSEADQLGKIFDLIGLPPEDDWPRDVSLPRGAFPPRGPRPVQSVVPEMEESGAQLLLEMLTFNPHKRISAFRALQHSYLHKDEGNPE
CDK4, sequence (P24385 whole entry partner): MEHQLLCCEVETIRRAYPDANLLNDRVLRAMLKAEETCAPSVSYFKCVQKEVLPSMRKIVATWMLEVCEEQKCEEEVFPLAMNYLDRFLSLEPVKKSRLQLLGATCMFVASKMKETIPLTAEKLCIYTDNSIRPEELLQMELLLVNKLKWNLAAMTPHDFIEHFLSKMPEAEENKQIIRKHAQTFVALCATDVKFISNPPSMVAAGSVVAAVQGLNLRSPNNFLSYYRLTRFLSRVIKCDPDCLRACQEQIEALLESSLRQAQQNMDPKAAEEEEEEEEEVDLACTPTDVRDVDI

## C[C@@H]1Cc2c([nH]c3ccccc23)[C@@H](c2c(F)cc(NC3CN(CCCF)C3)cc2F)N1CC(F)(F)CO [GDC-9545, 3-((1R,3R)-1-(2,6-difluoro-4-((1-(3-fluoropropyl)azetidin-3-yl)amino)phenyl)-3-methyl-1,3,4,9-tetrahydro-2H-pyrido[3,4-b]indol-2-yl)-2,2-difluoropropan-1-ol]
[1]
  steady-state total drug exposure relative to fulvestrant: approximately 10 fold
ESR1-mutant
  potency relative to fulvestrant: up to 10 times
wild-type ER
  potency relative to fulvestrant: up to 10 times
[2]
  free concentration compared with fulvestrant: higher
  plasma protein binding compared with fulvestrant: lower

## (2-Pyrimidinamine, N-[5-[(4-ethyl-1-piperazinyl)methyl]-2-pyridinyl]-5-fluoro-4-[4-fluoro-2-methyl-1-(1-methylethyl)-1H-benzimidazol-6-yl] [abemaciclib]
CDK4
  selectivity CDK4 versus CDK6: more selective for CDK4 than CDK6
[3]
  single-agent activity: single-agent activity

## C[C@]12CC[C@@H]3c4ccc(O)cc4C[C@@H](CCCCCCCCC[S+]([O-])CCCC(F)(F)C(F)(F)F)[C@H]3[C@@H]1CC[C@@H]2O (stereo partly drawn) [Fulvestrant]
Xenograft models
  efficacy in xenograft models compared with GDC-9545: less efficacious
[4]
  clinical benefit versus anastrozole: benefit over anastrozole

— US20230381154A1, “TREATMENT OF BREAST CANCER USING COMBINATION THERAPIES COMPRISING GDC-9545 AND ABEMACICLIB OR RIBOCICLIB” (Genentech, Inc., priority 2021, published 2023)
